According to PMC10065791 (eLife, 2023):

How the values were obtained:
[1] = molecular target: T1, I84V mutant protease (Human immunodeficiency virus type 1 group M subtype B, UniProt P12497, I572V/Q495K); test: Ki assay (FRET enzyme inhibition), I84V protease; type: biochemical, HIV-1; conditions: I84V drug-resistant protease variant
T1 construct: the gene encoding the desired HIV-1 protease was subcloned into the heat-inducible pXC35 expression vector; made in house
Description: (§1) The highly mutated, resistant, protease variant genes were purchased on a pET11a plasmid with codon optimization for protein expression in Escherichia coli (Genewiz). A Q7K mutation was included to prevent autoproteolysis ([Rosé et al., 1993]). The expression, isolation, and purification of WT and mutant HIV-1 proteases used for enzymatic assays were carried out as previously described ([Henes et al., 2019]; [King et al., 2002]; [Özen et al., 2014]). Briefly, the gene encoding the desired HIV-1 protease was subcloned into the heat-inducible pXC35 expression vector (ATCC) and transformed into E. coli TAP-106 cells. Cells grown in 6 l of Terrific Broth were lysed with a cell disruptor twice, and the protein was purified from inclusion bodies ([Hui et al., 1993]). Inclusion bodies, isolated as a pellet after centrifugation, were dissolved in 50% acetic acid followed by another round of centrifugation at 19,000 rpm for 30 min to remove insoluble impurities. Size-exclusion chromatography was carried out on a 2.1 l Sephadex G-75 Superfine (Sigma Chemical) column equilibrated with 50% acetic acid to separate high molecular weight proteins from the desired protease. Pure fractions of HIV-1 protease were refolded using a tenfold dilution of refolding buffer (0.05 M sodium acetate at pH 5.5, 5% ethylene glycol, 10% glycerol, and 5 µM DTT). Folded protein was concentrated to 0.5–3 mg/ml and stored. The stored protease was used in KM and Ki assays.
(§2) Enzyme inhibition constants (Ki values) were determined as previously described ([Henes et al., 2019]; [Lockbaum et al., 2019]; [Matayoshi et al., 1990]; [Windsor and Raines, 2015]). Briefly, in a 96-well plate, inhibitors were serially diluted down from […] depending on protease resistance. All samples were incubated with 5 nM protein for 1 hr. A 10-amino acid substrate containing an optimized protease cleavage site ([Windsor and Raines, 2015]), purchased from Bachem, with an EDANS/DABCYL FRET pair was dissolved in 4% DMSO at 120 µM. Using a PerkinElmer Envision plate reader, 5 µl of the 120 µM substrate were added to the 96-well plate to a final concentration of 10 µM. […] Data was analyzed with Prism7.

[2] = molecular target: T2, wild-type NL4-3 protease (Human immunodeficiency virus type 1 group M subtype B, UniProt P12497, Q495K); test: Ki assay (FRET enzyme inhibition), wild-type protease; type: biochemical, HIV-1; conditions: limit of detection 5 pM, read-out: Ki WT
T2 construct: the gene encoding the desired HIV-1 protease was subcloned into the heat-inducible pXC35 expression vector; made in house
Description: as §1, §2

[3] = molecular target: T3, I50V/A71V mutant protease (Human immunodeficiency virus type 1 group M subtype B, UniProt P12497, A559V/I538V/Q495K); test: Ki assay (FRET enzyme inhibition), I50V/A71V protease; type: biochemical, HIV-1; conditions: I50V/A71V drug-resistant protease variant
T3 construct: the gene encoding the desired HIV-1 protease was subcloned into the heat-inducible pXC35 expression vector; made in house
Description: as §1, §2

[4] = tested on: virus pool selected to 5000 nM inhibitor; test: TZM infection assay, inhibitor-selected resistant virus pools; type: cell-based, HIV-1; conditions: Human immunodeficiency virus 1, read-out: EC50 Viral culture (5000 nM); final virus pool selected with the same inhibitor to 5000 nM; highest level recorded 100 µM
Description: In addition to the sequence of the terminally selected virus, we validated that selection occurred over the entire course of the selection protocol. […] In comparing the number of mutations present in cultures using the I84V versus the I50V pathway, we noted that on average there were more mutations in the I50V viruses at the intermediate drug concentration compared to the I84V viruses (100 nM, p=0.03), and this trend continued at the higher drug concentration.
An aliquot of 3 × 10^6 CEMx174 cells was incubated at 37°C for 2–3 hr with 250 µl of a virus stock generated from the HIV-1 infectious molecular clone pNL4-3. The culture volume was then brought to 10 ml with RPMI medium. […] After 48 hr and every 48 hr after, the cells were pelleted by centrifugation and 10 ml of fresh medium and inhibitors were added. When the culture had undergone extensive cytopathic effect (CPE) indicative of viral replication, the supernatant medium and the cells were harvested separately and stored at –80°C. The virus-containing supernatant was used to start the next round of infection, and after several rounds at the initial concentration, the inhibitor concentration was increased 1.5-fold at each subsequent round of virus passage.
PI dilutions were prepared by taking 10 µM stocked and performing a fivefold serial dilution using RPMI media (final drug concentration is […]). One dilution of drug was added to each well of a 24-well plate and repeated so each virus would have a full set of dilutions. Viruses for the assay were made by seeding 3 × 10^6 CEM cells in a 24-well plate and incubating with 250 µl of virus at 37°C for 2–3 hr before bringing the culture to 10 ml with RPMI media. After 48 hr, the medium was changed and repeated every 48 hr after until the culture had undergone CPE. Infected CEM cells were collected and diluted so that 1 ml of cells could be plated in each well containing a unique drug dilution. Then 24 hr later the virus supernatant was collected from each well followed by filtering through a […] then placed in –80°C. Viruses were thawed and added to 96-well plates in triplicate. TZM-bl cells were collected and diluted to a concentration of 2 × 10^5 cells/ml, 100 µl were added on top of the pre-plated viruses. Plates were kept in 37°C, 5% CO2 in an incubator for 48 hr. After 48 hr, the cells in the plates were lysed by removing the medium, washing two times with 100 µl PBS, and then lysed with 1× lysis buffer (made from 5× Promega Firefly Lysis Buffer). Plates were frozen for at least 24 hr and then thawed for 2 hr before analyzing with Promega Firefly Luciferase Kit on a luminometer. Data was analyzed with Prism 7 to fit sigmoidal dose–response curves.

**Q.** `CC[C@H](C)CN(C[C@@H](O)[C@H](Cc1ccccc1)NC(=O)O[C@H]1CO[C@H]2OCC[C@H]21)S(=O)(=O)c1ccc(CO)cc1` [UMASS-3] was tested. Which Ki [1] did it give?
**A.** Its Ki is 0.0099 ± 0.0027 nM.

**Q.** What about the Ki [2] of the same compound?
**A.** The Ki was < 0.005 nM.

**Q.** And the Ki [3]?
**A.** Its Ki is 0.0799 ± 0.0059 nM.

**Q.** What about the EC50 [4] of the same compound?
**A.** Its EC50 is 14800 nM.

**Q.** What does the source list for `CC[C@H](C)CN(C[C@@H](O)[C@H](Cc1ccccc1)NC(=O)O[C@H]1CO[C@H]2OCC[C@H]21)S(=O)(=O)c1ccc2c(c1)OCO2` [UMASS-4]?
**A.** Ki [1]: 0.0105 ± 0.0018 nM; Ki [2]: < 0.005 nM; Ki [3]: 0.0329 ± 0.003 nM; EC50 [4]: 13700 nM

**Q.** What does the source list for `CC[C@H](C)CN(C[C@@H](O)[C@H](Cc1ccccc1)NC(=O)O[C@H]1CO[C@H]2OCC[C@H]21)S(=O)(=O)c1ccc2ncsc2c1` [UMASS-5]?
**A.** Ki [1]: 0.007 ± 0.0017 nM; Ki [2]: < 0.005 nM; Ki [3]: 0.0078 ± 0.0009 nM; EC50 [4]: > 100000 nM

**Q.** What does the source list for `CCC(CC)CN(C[C@@H](O)[C@H](Cc1ccccc1)NC(=O)O[C@H]1CO[C@H]2OCC[C@H]21)S(=O)(=O)c1ccc(OC)cc1` [UMASS-7]?
**A.** Ki [1]: 0.0121 ± 0.0045 nM; Ki [2]: < 0.005 nM; Ki [3]: 0.0182 ± 0.003 nM

**Q.** `CCC(CC)CN(C[C@@H](O)[C@H](Cc1ccccc1)NC(=O)O[C@H]1CO[C@H]2OCC[C@H]21)S(=O)(=O)c1ccc2c(c1)OCO2` [UMASS-9] was tested. Which Ki [1] did it give?
**A.** The Ki was 0.0076 ± 0.0016 nM.

**Q.** And the Ki [2]?
**A.** The Ki was < 0.005 nM.

**Q.** And the Ki [3]?
**A.** Its Ki is 0.0423 ± 0.0026 nM.

**Q.** What about the EC50 [4] of the same compound?
**A.** The EC50 was > 100000 nM.
